Values quoted from earlier work in patent US20220105150A1, “AMPHIPATHIC ALPHA-HELICAL ANTIMICROBIAL PEPTIDES TREAT INFECTIONS BY GRAM-NEGATIVE PATHOGENS” (priority 2019, published 2022).

Legend:
[1] = tested on: A. baumannii strains from JMI Laboratories; settings: 20 A. baumannii isolates from JMI Laboratories; cited from earlier work
[2] = tested on: Acinetobacter baumannii strains resistant to Polymyxin B and Colistin; settings: results provided by MERCK, cited from earlier work; for MICGM: geometric mean over seven strains; for MIC MB9941: strain MB9941; for MIC MB9949: strain MB9949; for MIC MB9951: strain MB9951; for MIC MB9952: strain MB9952; for MIC MB9953: strain MB9953; for MIC MB9955: strain MB9955; for MIC MB9963: strain MB9963

In the case of `C[C@@H](O)[C@H]1C(=O)N2C(C(=O)O)=C(S[C@@H]3CN[C@H](CNS(N)(=O)=O)C3)[C@H](C)[C@H]12` [Doripenem], the “number of resistant isolates out of the number of isolates screened” value (shortened to “number”) [1] is listed as 17/20.
For `C[C@@H](O)[C@H]1C(=O)N2C(C(=O)O)=C(S[C@@H]3CN[C@H](C(=O)N(C)C)C3)[C@H](C)[C@H]12` [Meropenem], the “number” value [1] is given as 17/20.
For `NC[C@H]1O[C@H](O[C@H]2[C@H](O)[C@@H](O[C@H]3O[C@H](CO)[C@@H](O)[C@H](N)[C@H]3O)[C@H](N)C[C@@H]2N)[C@H](N)C[C@@H]1O` [Tobramycin], the “number” value [1] is given as 18/20.
For Ampicillin-sulbactam, the “number” value [1] is listed as 17/20.
In the case of Ceftazidime-avibactam, the “number” value [1] is given as 17/20.
For Colistin, the MICGM [2] is listed as over 28 µM, the “MIC MB9941” value [2] is listed as over 28 µM and the “MIC MB9949” value [2] is listed as over 28 µM. For the same molecule, the “MIC MB9951” value [2] was over 28 µM, the “MIC MB9952” value [2] was over 28 µM and the “MIC MB9953” value [2] was over 28 µM. For the same molecule, the “MIC MB9955” value [2] was over 28 µM, the “MIC MB9963” value [2] was over 28 µM and the “number” value [1] was 10/20.
For Gentamicin, the “number” value [1] is given as 18/20.
In the case of Piperacillin-tazobactam, the “number” value [1] is listed as 19/20.
For Polymyxin B, the MICGM [2] is given as over 25 µM, the “MIC MB9941” value [2] is given as over 25 µM and the “MIC MB9949” value [2] is given as over 25 µM. The “MIC MB9951” value [2] was over 25 µM, the “MIC MB9952” value [2] was over 25 µM and the “MIC MB9953” value [2] was over 25 µM. The “MIC MB9955” value [2] was over 25 µM and the “MIC MB9963” value [2] was over 25 µM.
